Test results: patent US11291659B2, “P38 kinase inhibitors reduce DUX4 and downstream gene expression for the treatment of FSHD” (Fulcrum Therapeutics, Inc., priority 2017, dated 2022)

Key:
[1] = test system: MBD3L2 mRNA (DUX4 downstream gene); assay: MBD3L2 mRNA expression by qPCR in FSHD myotubes; format: cell-based, Human; conditions: for IC50: Homo sapiens, Myotube, read-out: IC50, reduction of MBD3L2 mRNA expression, FSHD myotubes, realtime PCR
Procedure: Cell Plating: Performed three days prior to treatment, 10000 cells were plated per well on gelatinized 96-well plates, or 100000 cells on gelatinized 6-well plates.
(§1) For ASO or compound treatments cells were plate into 100 μL of Promocell growth medium containing ASO or compounds at the described concentrations.
(§2) On day 0, change to differentiation media. Remove plates from the incubator and aspirate the growth medium, Wash once with PBS, 100 μL for 96-wells and 1 mL for a 6-well plate, Add 100 μL or 2 mL of differentiation medium per well, 96- or 6-well respectively. Add antisense oligonucleotides or drug at the desire concentration and put back in the incubator. Fusion should start within day 1-2. Incubate for 3-4 days.
(§3) Cells were removed from the incubator and media aspirated. Quickly lysed following one of the following protocols: For lysis in 96-well plates direct lysis and one-step RT-Preamp qPCR protocol described below. For each 96-well prepare a mix containing: 19.5 μL Roche Realtime Ready lysis buffer, 0.25 μL RNAse inhibitor, 0.25 μL DNAseI (from Thermo not the included one in the kit). 20 μL of the mix was added to each well, mix 5 times and incubated 5 minutes at RT or alternatively shaken vigorously for 15 minutes. Lysis was observed under the microscope. Samples were frozen −80° C. at least for 15 minutes,
(§4) For qPCR, dilute 1:10 and use 2 μL for a 10 μL 1-step RT-qPCR reaction. For detection of GAPDH, RPLP0, TBP, MYOG, FRG1, MYH3, ACTN2, etc.). Per 10 μL reaction: RNA (1:10 dilution lysate) 2 μL, Fast Advanced Taqman Master Mix (2×) 5 μL, RT enzyme mix (40×) 0.25 μL, Taqman probe set (20×) 0.5 μL, H2O 2.25 μL. The following reaction protocol was run on the QuantStudio 7: 48° C. for 15 min, 50° C. for 2 min, 95° C. for 30 sec, 40×, 95° C. for 5 sec, 60° C. for 30 sec, then plates were read as specified by the manufacturer (Thermo). For 1-step RT-Preamplification used for detection of DUX4 downstream genes, i.e. MBD3L2, ZSCAN4, LEUTX, TRIM43, KHDC1L. POL2RA-VIC was used as Endogenous control). Per 10 μL reaction: RNA (1:10 dilution lysate) 2.25 μL, Taqman Pre-Amp Master Mix (2×) 5 μL, RT enzyme mix (40×) 0.25 μL, Taqman probe set (0.2×)*2.5 μL, * Pooling the TaqMan Assays: equal volumes of each 20× TaqMan® Gene Expression Assay, up to 100 assays were combined. For example, to pool 50 TaqMan assays, 10 μL of each assay were combined in a microcentrifuge tube. The pooled TaqMan assays were diluted using 1×TE buffer so that each assay is at a final concentration of 0.2×. For the above example, add 500 μL of 1×TE buffer to the pooled TaqMan assays for a total final volume of 1 mL. The QuantStudio7 protocol was used 48° C. 15 min, 95° C. 10 min, 10 cycles: 95° C. 15 sec, 60° C. 4 min, 4° C. infinite. Samples were then diluted to 50 μL and continue with the qPCR step. Per 10 μL reaction: Preamp dilution 2 μL, Fast Advanced Taqman Master Mix (2×) 5 μL, Taqman probe set (20×) 0.5 μL, H2O 2.5 μL. When multiplexing the volume was adjusted to 10 μL total). The following program was run on the QuantStudio7: 50° C. for 2 min, 95° C. for 30 sec, 40×, 95° C. for 5 sec, 60° C. for 30 sec, plates were read as per the manufacturers specifications (Thermo).
(§5) After treatment, the control and treated cells were processed for realtime PCR quantification of MBD3L2 mRNA (DUX4 downstream gene) and myogenin (MYOG) mRNA (control) expression.

myogenin (MYOG) mRNA = assay: Myogenin (MYOG) mRNA expression by qPCR in FSHD myotubes (control gene); format: cell-based, Human
Procedure: as §1, §2, §3
as §4, with “For the above example, add 500 μL of 1×TE buffer to the pooled TaqMan assays for a total final volume of 1 mL. The QuantStudio7 protocol was used 48° C. 15 min, 95° C. 10 min, 10 cycles: 95° C. 15 sec, 60° C. 4 min, 4° C. infinite. Samples were then diluted to 50 μL and continue with the qPCR step. Per 10 μL reaction: Preamp dilution 2 μL, Fast Advanced Taqman Master Mix (2×) 5 μL, Taqman probe set (20×) 0.5 μL, H2O 2.5 μL. When multiplexing the volume was adjusted to 10 μL total).” left out
as §5

FSHD myotubes = assay: Myotube formation / fusion, MHC and DAPI staining; format: cell-based, Human; conditions: immortalized FSHD myotubes; 1, 0.33, 0.11, 0.037 μM; 4 days
Procedure: as §2
Briefly, cells were fixed in 4% paraformaldehyde and […] for 10 min at room temperature. Cells were permeabilized with PBST (1×PBS solution with 0.1% Triton X-100) before blocking with 10% Normal Donkey Serum or 3% BSA (NDS) in PBST. […] DUX4 was detected by immunocytochemistry using the E5-5 antibody in differentiated FSHD myotubes. Activated Caspase-3 was detected cell signaling antibody that we're using for ICC, Asp175 (https://www.cellsignal.com/products/primary-antibodies/cleaved-caspase-3-asp175-antibody/9661).
Immortalized FHSD myotubes were differentiated and treated with DMSO vehicle control or FTX-1821 at concentrations of 1 μM, 0.33 μM, 0.11 μM, or 0.037 μM. […] The nuclei in myotubes were quantified according to MHC staining (FIG. 8B).

DUX4 target genes = assay: RNA-seq profiling of FSHD myotubes; format: cell-based, Human
Description: The 40 bp single-end reads from Illumina had good quality by checking with FastQC (http://www.bioinformatics.babraham.ac.uk/projects/fastqc/). Reads were mapped to hg19 using TopHat v2.1.1. The gene model for TopHat was created by merging known Gene in gtf format with kgXref table. Both known Gene and kgXref were downloaded from UCSC table browser in hg19 assembly. The read counts were obtained using feature Counts function from Subread package with strandness option as −r 2. Reads were normalized with DESeq2. […] Consequently, Combat was used for reducing this batch effect. Calculated standard RPKM expression values. Total gene signature is very small and defined at standard statistical cutoffs: 86/19,799 mRNA genes. DUX4-regulated gene signature is majority of total signature: 77/86 mRNA genes=90%. Non-DUX4 regulated genes is minority of total signature with moderate fold changes: 9/86 mRNA genes=10%; 2-2.7×log FC.
In addition, gene expression was also determined in wild type myotubes treated with DMSO. Three replicates for each condition were analyzed by RNA-seq and genes were clustered by the direction and intensity of change.

[2] = test system: phospho MK2 to total MK2 ratio; assay: p38 system target engagement in rat trapezius muscle; format: in vivo, Sprague-Dawley rats
Procedure: Pharmacodynamic analysis of p38 system target engagement in muscle tissue was performed by measuring the change in phosphor MAP kinase-activated protein kinase 2 (MK2) to total MK2 ratio before and after drug treatment.

[3] = test system: DUX4 dependent target genes; assay: Prediction for FSHD patient muscle from rat muscle concentrations and in vitro myotube data; set-up: species or system Human; conditions: at Cmax, FSHD patient muscle biopsies
Procedure: P38 system target engagement persisted for at least 12 hours following the single dose of FTX-1821 (FIG. 15). P38 system target engagement in trapezius muscle was maximal when plasma and muscle concentrations of FTX-1821 were greater than 20 ng/mL or ng/g and declined at timepoints when exposures decreased. The muscle concentrations of FTX-1821 achieved in the rat study are predicted to result in >70% reduction at Cmax in DUX4 dependent target genes in FSHD patient muscle biopsies based upon in vitro data in FSHD myotubes (above).

[4] = test system: DUX4 and downstream genes ZSCAN4, TRIM43, MBD3L2, LEUTX, KHDC1L; assay: DUX4-regulated downstream genes by real time PCR after DUX4 ASO; format: cell-based, Human; conditions: FSHD myotubes
Procedure: as §1
Wild type myotubes were treated with DMSO control vehicle, and mature patient-derived FSHD myotubes that express DUX4 protein were treated with DMSO vehicle control or 1 μM of a DUX4 sequence-directed antisense oligonucleotide (ASO; FTX-2) purchased from Exiqon. After treatment, the myotubes were lysed in 19.5 μL of Roche Real Time Ready Lysis Buffer, 0.25 μL of DNAse1 (Ambion, AM2222), 0.25 μL of Protector RNase Inhibitor (Roche, 3335402001), and the RNA was collected in an RNeasy Micro Kit Master Mix. Expression levels of DUX4-regulated downstream genes (ZSCAN4, TRIM43, MBD3L2, LEUTX, and KHDC1L) was determined by real time PCR (ThermoFisher Scientific, 4484262), ZSCAN4 Taqman Assay (ThermoFisher Scientific, Hs00537549_m1, FAM-MGB), MYOG Taqman Assay (ThermoFisher Scientific, Hs01072232_m1, JUN-QSY), RPLP0 Taqman Assay (ThermoFisher Scientific, Hs99999902_m1), and/or LEUTX Taqman Assay (ThermoFisher Scientific, Hs00418470_m1). Ct values were extracted from QuantStudio Realtime PCR software, and Genedata was used to calculate relative levels of expression using POLR2A as a housekeeping gene.

[5] = rat trapezius muscle, single oral dose 0.3 mg/kg

## CCc1nc(-c2cccc(C)c2)c(-c2ccnc(NC(=O)c3ccccc3)c2)s1 [TAK-715, N-(4-(2-ethyl-4-(3-methylphenyl)-1,3-thiazol-5-yl]-2-pyridyl]benzamide]
[1]
  IC50: < 0.01 µM
Myogenin (MYOG) mRNA
  MYOG mRNA expression: no impact

## Cc1c(F)cc(C(=O)NC2CC2)cc1-c1ccc(C(=O)NCC(C)(C)C)cn1 [FTX-1821]
[1]; FSHD1 and FSHD2 primary patient myoblast lines, 1 μM
  MBD3L2 mRNA expression: reduction of MBD3L2
[1]; myotubes of four FSHD patient lines FTCE-016, -020, -197, -196, 1 μM
  MBD3L2 expression levels: reduced in all of the FSHD lines
FSHD myotubes
  myotube formation or fusion: no changes
DUX4 target genes; 1 μM vs DMSO, RNA-seq
  Non-DUX4-regulated genes in total signature: 9/86
  fold changes of non-DUX4-regulated genes: 2-2.7 × log FC
DUX4 target genes; 1 μM, compared with wild type cells
  expression of differentially expressed (DUX4 pathway) genes: normalized
[2]; rat
  plasma concentration at which inhibition of the p38 system in muscle was maximal: greater than 20 ng/mL
[2]; rat trapezius muscle
  plasma and muscle concentrations at which target engagement was maximal: greater than 20 ng/mL or ng/g
[2]; [5]
  phospho MK2 to total MK2 ratio: significantly decreased
  time to decrease of phospho MK2 to total MK2 ratio: ≤ 1 h
[2]; rat, single oral dose 0.3 mg/kg
  persistence of p38 system target engagement: at least 12 hours
[3]
  predicted reduction in DUX4 dependent target genes: > 70%

## FTX-2: DUX4 sequence-directed antisense oligonucleotide purchased from Exiqon, CAGCGTCGGAAGGTGG (SEQ ID NO: 1) (listed as DNA, chemistry not given here)
[4]; 1 μM vs DMSO
  expression of DUX4 and target genes ZSCAN4, TRIM43, MBD3L2, LEUTX, KHDC1L: reduced amounts
[4]; different dilutions
  DUX4 and downstream gene MBD3L2 expression: dose dependent reduction

## NC(=O)c1ccc(N(C(N)=O)c2c(F)cccc2F)nc1-c1ccc(F)cc1F [VX-702, 2-(2,4-difluorophenyl)-6-(1-(2,6-difluorophenyl)ureido)nicotinamide]
[1]
  IC50: < 0.01 µM
Myogenin (MYOG) mRNA
  MYOG mRNA expression: no impact

## COc1nccc(-c2c(-c3ccc(F)cc3)ncn2C2CCC(O)CC2)n1 (stereo not shown) [SB239063]
Myogenin (MYOG) mRNA
  MYOG mRNA expression: no impact
